Test results from patent US6979687B1, “Theophylline-based soluble guanylyl cyclase activators KMUP-1 analogues enhanced cyclic GMP and K+ channel activities on rabbit corpus cavernosum smooth muscle and intercavernous pressure activities” (Cho-Jan Liang, priority 2002, dated 2005).
Like-named read-outs stand apart in the source and are kept apart here.

Tests used:
[1] = test system: rabbit corpus cavernosum smooth muscle cells; test: Intracellular cGMP content in rabbit corpus cavernosum smooth muscle cells; type: cell-based
Procedure: (§1) Culture of rabbit corpus cavernosum smooth muscle cells Rabbit corpus cavernosum smooth muscles were obtained as sterile surgical specimens, the tissue was washed and cut into 1 to 2 mm pieces and placed into culture dishes with Dulbecco's modified Eagle's medium (DMEM) containing 20% fetal bovine serum (FBS), penicillin (100 U ml^−1), streptomycin (100 U ml^−1) and 2 mM Glutamine. After explants attached to the culture dish, usually 1 to 2 days, DMEM (Dulbecco's modified Eagle's medium) supplement with 10% FBS, penicillin, streptomycin, and glutamine were added. Smooth muscle cells migrated out from the explants in 3–5 days. At this time, the explants were removed, and cells were allowed to achieve confluence. Cells were detached using 0.05% trypsin, 0.02% EDTA at 37° C. for 5 minutes to establish secondary cultures. Cultures were maintained for no more than 4 passages. Cellular homogeneity was further confirmed by the presence of smooth muscle specific α-myosin and α-actin immunoreactivity. Indirect immunofluorescence staining for a variety of antigens was carried out by first plating the cells on chamber slides fixing the cells in 3.7% formaldehyde-phosphate buffered saline for 10 minutes and permeabilizing the cells with phosphate buffered saline 0.1% Triton X-100. Cells were then stained with either a mouse monoclonal antibody directed against the amino terminal 10 amino acids of α-smooth muscle actin and α-myosin (Moreland R. B. et al., J Urol., 153, 826–834, 1995).
Measurement of intracellular guanosine 3′,5′-cyclic monophosphate content Intracellular cGMP concentrations in rabbit corpus cavernosum smooth muscle cells were assayed as our previously described (Wu et al., 2001). In brief, cells were finally grown in 24-well plates (10^5 cells well^−1). […] Incubation was terminated by the addition of 6% trichloroacetic acid (TCA). Cell suspensions were sonicated and then centrifuged at 2500 g for 15 min at 4° C. Then, the supernatants were lyophilized and cGMP of each sample was determined using a commercially available radioimmunoassay kits (Amersham Pharmacia Biotech, Buckinghamshire, England).
as §1, with “Rabbit CCSMs (corpus” for “Rabbit corpus”, “smooth muscles)” for “smooth muscles”, “DMEM” for “DMEM (Dulbecco's modified Eagle's medium)”, “(Moreland” for “(Moreland R. B.”, “al.,” for “al., J Urol., 153, 826–834,”
Measurement of intracellular cyclic GMP content Intracellular cGMP concentrations in rabbit CCSM cells were assayed as our previously described (Wu et al., 2001). In brief, cells were finally grown in 24-well plates (10^5 cells well^−1). […] Incubation was terminated by the addition of 6% trichloroacetic acid (TCA). Cell suspensions were sonicated and then centrifuged at 2500 g for 15 min at 4° C. […]

[2] = Learning and memory behavioral tasks (Morris water maze, passive inhibitory and active avoidance, rotorod); type: in vivo
Source text: Long-term potentiation (LTP) is a potential cellular mechanism underlying learning and memory. Nitric oxide (NO) acts as a retrograde messenger and its downstream effectors are also involved in the modulation of synaptic plasticity in various brain regions such as hippocampus, amygdala, cerebellum, brain stem, cortex etc. Although nitric oxide (NO) is thought to affect synaptic potentiation in various brain regions, the NO-cGMP-PKG pathway involved in memory acquisition in living animals is still unclear. […]. The stimulating parameter which induced long-lasting depression was shifted to a lower frequency by theophylline-based derivative. Furthermore, simultaneous perfusion of theophylline-based derivatives with different concentration of NO donor induced LTP or LTD when the hippocampal slices were stimulated at a frequency as low as 0.02 Hz. The effects of theophylline-based derivative on the behavioral tasks in the following anomal models were examined: Morris water maze, passive inhibitory and active avoidance tests, and rotorod test. […] KMUP-1 injected (1 mg/kg,i.p.) 10 min before the training shortened the escape latency in water maze, increased the retention scores in passive inhibitory avoidance task, decreased the retention time in active avoidance test, and enhanced the motor coorfination in the examination of rotorod. […] YC-1 thus enhanced LTP, learning and memory in an NO-cGMP-PKG-dependent pathway and is a promising drug to enhance learning and memory in human being.

[3] = test system: intracavernous pressure of rabbits; conditions: for DT, duration of tumescence / ΔICP, peak increased intracavernous pressure: n=8
Procedure: Measurement of intracavernous pressure Male rabbits were used for the investigation. After sedation with an intramuscular injection of ketamine (10 mg kg^−1), the rabbits were anaesthetized with intraperitoneal pentobarbital (30 mg kg^−1) and maintained with 10 mg kg^−1 if needed. The animals breathed spontaneously. The rabbits were then placed in the supine position, and the body temperature was maintained at 37° C. The femoral artery was cannulated for continuous monitoring of systemic arterial pressure (SAP) and heart rate (HR) via a pressure transducer (Spectramed, Model P10EZ, U.S.A.). Under sterile conditions, the skin overlying the penis was incised and the corpora cavernosum was exposed at the root of the penis. A 25-gunge needle was inserted into the corpus cavernosum smooth muscles for pressure recording. The needle was connected to a three-way stopcock, thus permitting the intracavernous injection of the drugs. The tube was filled with heparinized saline (50 IU 2 h^−1) to prevent clotting.
Normal saline in increasing volumes (0.05, 0.1, 0.2 ml) was injected in four rabbits as a control group. […] In order to minimize the effect of the previous drug, the cavernous body was flushed with 0.2 ml normal saline before each injection and the time interval between each injection was at least 1.5 h.
Measurement of intracavernous pressure Male rabbits were used for the investigation. After sedation with an intramuscular injection of ketamine (10 mg kg^−1), the rabbits were anaesthetized with intraperitoneal pentobarbital (30 mg kg^−1) and maintained with 10 mg kg^−1 if needed. The animals breathed spontaneously. The rabbits were then placed in the supine position, and the body temperature was maintained at 37° C. The femoral artery was cannulated for continuous monitoring of systemic arterial pressure (SAP) and heart rate (HR) via a pressure transducer (Spectramed, Model P10EZ, U.S.A.). Under sterile conditions, the skin overlying the penis was incised and the corpora cavernosum was exposed at the root of the penis. A 25-gunge needle was inserted into the CCSMs for pressure recording. The needle was connected to a three-way stopcock, thus permitting the intracavernous injection of the drugs. The tube was filled with heparinized saline (50 IU 2 h^−1) to prevent clotting.

[4] = 1 mg/kg i.p. 10 min before the training
[5] = 0.2 mg/kg intracavernous injection
[6] = 0.4 mg/kg intracavernous injection
[7] = 0.6 mg/kg intracavernous injection

Compound: Cn1c(=O)c2c(ncn2CCN2CCN(c3ccccc3Cl)CC2)n(C)c1=O [KMUP-1, 7-[2-[4-(2-chlorophenyl)piperazinyl]-ethyl]-1,3-dimethylxanthine]
- cGMP levels ([1]; 0.01–10 μM, in the presence of IBMX (100 μM)): increased the cGMP levels
- cGMP levels after ODQ pretreatment ([1]; pretreatment with ODQ (10 μM)): inhibited
- escape latency in water maze [2, 4]: shortened
- motor coordination in rotorod [2, 4]: enhanced
- retention scores in passive inhibitory avoidance task [2, 4]: increased
- retention time in active avoidance test [2, 4]: decreased
- retention of passive inhibitory avoidance ([2]; given 30 min after foot-shock): did not affect
- DT, duration of tumescence [3, 5]: 15 ± 2.24 min
- ΔICP, peak increased intracavernous pressure [3, 5]: 30 ± 5.25 mmHg
- DT, duration of tumescence [3, 6]: 27 ± 2.05 min
- ΔICP, peak increased intracavernous pressure [3, 6]: 55 ± 6.21 mmHg
- DT, duration of tumescence [3, 7]: 35 ± 3.45 min
- ΔICP, peak increased intracavernous pressure [3, 7]: 67 ± 12.32 mmHg
- intracavernous pressure, dose dependence ([3]; 0.2, 0.4, 0.6 mg kg−1 intracavernous): dose-dependent elevations
- HR (heart rate) ([3]; rabbit, in vivo): unchanged
- SAP (systemic arterial pressure) ([3]; rabbit, in vivo): unchanged
